Each compound was assayed against c-Myc template DNA (c-myc quadruplex) (assay: Quadruplex binding / stop assay (Taq polymerase arrest, capillary electrophoresis)). Conditions: read-out: S DATA; Table 1D, stop assay data.

| SMILES | IC50 [µM] |
| --- | --- |
| CN1CCN(CCCNC(=O)c2cn3c4c(c(N5CCC(NC(=O)OC(C)(C)C)C5)c(F)cc4c2=O)Oc2ccccc2-3)CC1 (stereo not shown) [compound 1585] | > 15 |
| CN1CCN(CCCNc2c(F)cc3c(=O)c(C(=O)NCCN4CCOCC4)cn4c3c2Oc2ccccc2-4)CC1 [compound 1573] | > 15 |
| CCCCOCCCNC(=O)c1cn2c3c(c(N4CCC(N)C4)c(F)cc3c1=O)Oc1cc3ccccc3cc1-2 (stereo not shown) [compound 1692] | > 15 |
| O=C(NCCN1CCCC1)c1cn2c3c(c(N4CCN(Cc5ccco5)CC4)c(F)cc3c1=O)Oc1cc(Cl)ccc1-2 [compound 1829] | 10 |
| O=C(NCCCN1CCOCC1)c1cn2c3c(c(NCCN4CCOCC4)c(F)cc3c1=O)Oc1ccccc1-2 [compound 1604] | > 15 |
| CC(C)(C)OC(=O)NC1CCN(c2c(F)cc3c(=O)c(C(=O)NCCCCNC(=N)N)cn4c3c2Oc2ccccc2-4)C1 (stereo not shown) [compound 1632] | > 15 |
| CN(C)CCCCNC(=O)c1cn2c3c(c(N4CCC(NC(=O)OC(C)(C)C)C4)ccc3c1=O)Oc1cc3ccccc3cc1-2 (stereo not shown) [compound 1539] | 0.75 |
| O=C(NCCN1CCCC1)c1cn2c3c(c(NCC4CCCO4)c(F)cc3c1=O)Oc1ccc(Cl)cc1-2 (stereo not shown) [compound 1799] | > 15 |
| CN1CCCC1CCNC(=O)c1cn2c3c(c(NC4CN5CCC4CC5)c(F)cc3c1=O)Oc1cc3ccccc3cc1-2 (stereo not shown) [compound 1495] | 0.75 |
| CN(C)CCCCNc1ccc2c(=O)c(C(=O)NCCCN3CCOCC3)cn3c2c1Oc1cc2ccccc2cc1-3 [compound 1542] | > 15 |
| O=C(NCCN1CCOCC1)c1cn2c3c(c(N4CCC(c5cnccn5)C4)c(F)cc3c1=O)Oc1ccc(Cl)cc1-2 (stereo not shown) [compound 1789] | > 15 |
| COc1ccc(CCNc2c(F)cc3c(=O)c(C(=O)N(C)CCc4ccccn4)cn4c3c2Oc2cc3ccccc3cc2-4)cc1OC [compound 1759] | 10 |
| CN1CCN(CCCNc2c(F)cc3c(=O)c(C(=O)NCCCCN)cn4c3c2Oc2ccccc2-4)CC1 [compound 1579] | > 15 |

Further lines, results first:

| IC50 [µM] | SMILES |
| --- | --- |
| 0.75 | CN1CCCC1CCNC(=O)c1cn2c3c(c(NCCCCN4CCCC4)c(F)cc3c1=O)Oc1cc3ccccc3cc1-2 (stereo not shown) [compound 1504] |
| > 15 | COc1ccccc1CCNc1c(F)cc2c(=O)c(C(=O)NCCC3CCCN3C)cn3c2c1Oc1cc2ccccc2cc1-3 (stereo not shown) [compound 1684] |
| 1.75 | CC(O)CNc1c(F)cc2c(=O)c(C(=O)NCCC3CCCN3C)cn3c2c1Oc1cc2ccccc2cc1-3 (stereo not shown) [compound 1656] |
| 1.75 | CC(CNc1c(F)cc2c(=O)c(C(=O)NCCC3CCCN3C)cn3c2c1Oc1cc2ccccc2cc1-3)c1ccccc1 (stereo not shown) [compound 1662] |
| 1.75 | C[C@H](O)CNc1c(F)cc2c(=O)c(C(=O)NCCC3CCCN3C)cn3c2c1Oc1cc2ccccc2cc1-3 (stereo partly shown) [compound 1683] |
| > 15 | CC(C)CC(CO)Nc1c(F)cc2c(=O)c(C(=O)NCCC3CCCN3C)cn3c2c1Oc1cc2ccccc2cc1-3 (stereo not shown) [compound 1743] |
| 1.75 | CN1CCCC1CCNC(=O)c1cn2c3c(c(NCCCNC(=O)OC(C)(C)C)c(F)cc3c1=O)Oc1cc3ccccc3cc1-2 (stereo not shown) [compound 1689] |
| 0.75 | CN1CCCC1CCNC(=O)c1cn2c3c(c(N4CCC(c5cccnc5)C4)c(F)cc3c1=O)Oc1cc3ccccc3cc1-2 (stereo not shown) [compound 1508] |
| 1.75 | CN1CCCC1CCNc1ccc2c(=O)c(C(=O)NCCN3CCOCC3)cn3c2c1Oc1cc2ccccc2cc1-3 (stereo not shown) [compound 1527] |
| 0.75 | CN1CCCC1CCNC(=O)c1cn2c3c(c(NCCC4CCCN4C)ccc3c1=O)Oc1cc3ccccc3cc1-2 (stereo not shown) [compound 1523] |
| 0.375 | CN1CCCC1CCNC(=O)c1cn2c3c(c(NCC4CCNC4)c(F)cc3c1=O)Oc1cc3ccccc3cc1-2 (stereo not shown) [compound 1617] |
| > 15 | CN1CCCC1CCNC(=O)c1cn2c3c(c(NC(CO)CC4CCCCC4)c(F)cc3c1=O)Oc1cc3ccccc3cc1-2 (stereo not shown) [compound 1748] |
| 1 | CN1CCCC1CCNC(=O)c1cn2c3c(c(NCCCn4ccnc4)c(F)cc3c1=O)Oc1cc3ccccc3cc1-2 (stereo not shown) [compound 1670] |
| 10 | CN1CCCC1CCNC(=O)c1cn2c3c(c([S+]([O-])CCc4cnccn4)c(F)cc3c1=O)Oc1cc3ccccc3cc1-2 (stereo not shown) [compound 1769] |
| 1.75 | CCCCOCCCNc1c(F)cc2c(=O)c(C(=O)NCCC3CCCN3C)cn3c2c1Oc1cc2ccccc2cc1-3 (stereo not shown) [compound 1659] |
| 0.95 | CC1CCCCN1CCCNc1c(F)cc2c(=O)c(C(=O)NCCC3CCCN3C)cn3c2c1Oc1cc2ccccc2cc1-3 (stereo not shown) [compound 1489] |
| > 15 | CN1CCCC1CCNC(=O)c1cn2c3c(c(NCc4ccoc4)c(F)cc3c1=O)Oc1cc3ccccc3cc1-2 (stereo not shown) [compound 1752] |

Same assay, conditions: read-out: Stop Data c-Myc μM; concentration at which 50% of the DNA was arrested (arrested:full-length 1:1)

| SMILES | IC50 [µM] |
| --- | --- |
| CC(C)(C)OC(=O)N[C@@H]1CCN(c2c(F)cc3c(=O)c(C(=O)NCCN4CCOCC4)cn4c3c2Oc2cc3ccccc3cc2-4)C1 [compound 63] | 2.5 |
| CN1CCN(CCCNc2ccc3c(=O)c(C(=O)NCCN4CCCC4)cn4c3c2Oc2cc3ccccc3cc2-4)CC1 [compound 454] | 0.75 |
| CN(C)CCCCNc1c(F)cc2c(=O)c(C(=O)NCCN3CCOCC3)cn3c2c1Oc1c-3ccc2ccccc12 [compound 141] | 1.75 |
| CC1(C)CC(NC(=O)c2cn3c4c(c(N5CCC(N)C5)c(F)cc4c2=O)Oc2cc4ccccc4cc2-3)CC(C)(C)N1 (stereo not shown) [compound 444] | 0.75 |
| NC1CCN(c2c(F)cc3c(=O)c(C(=O)NCc4nc5ccccc5[nH]4)cn4c3c2Oc2cc3ccccc3cc2-4)C1 (stereo not shown) [compound 196] | 1.75 |
| NC1CCN(c2c(F)cc3c(=O)c(C(=O)NC4CCN(Cc5ccccc5)CC4)cn4c3c2Oc2cc3ccccc3cc2-4)C1 (stereo not shown) [compound 245] | 1.75 |
| CN1CCN(CCCNc2c(F)cc3c(=O)c(C(=O)N4CCN(C)CC4)cn4c3c2Oc2cc3c(cc2-4)oc2ccccc23)CC1 [compound 154] | 1.75 |
| O=C(O)c1cn2c3cc4oc5cc([N+](=O)[O-])ccc5[nH]c4cc3oc3c(NCCN4CCCC4)c(F)cc(c1=O)c32 [compound 17] | 0.75 |
| CC(C)(C)OC(=O)NC1CCN(C(=O)c2cn3c4c(c(N5CCC(NC(=O)OC(C)(C)C)C5)c(F)c(N)c4c2=O)Oc2cc4ccccc4cc2-3)C1 (stereo not shown) [compound 227] | 1.75 |
| CC(C)(C)OC(=O)N[C@H]1CCN(c2c(F)cc3c(=O)c(C(=O)NCCN4CCOCC4)cn4c5cc6c(cc5oc2c34)c(=O)c2ccccc26)C1 [compound 208] | 1.75 |
| CN1CCN(CCCNC(=O)c2cn3c4cc5c(cc4oc4c(NCCCN6CCOCC6)c(F)cc(c2=O)c43)c(=O)c2ccccc25)CC1 [compound 209] | 1.75 |
| CN(C)CCCCNc1c(F)cc2c(=O)c(C(=O)NCCCn3ccnc3)cn3c2c1Oc1c-3ccc2ccccc12 [compound 142] | 1.75 |
| CC(=O)N[C@@H]1CCN(c2c(F)cc3c(=O)c(C(=O)NCCCN4CCN(C)CC4)cn4c3c2Oc2cc3c(cc2-4)oc2ccccc23)C1 [compound 179] | 1.75 |
| CN1CCCC1CCNC(=O)c1cn2c3c(c(NCCCN4CCOCC4)c(F)cc3c1=O)Oc1c-2ccc2ccccc12 (stereo not shown) [compound 128] | 1.75 |
| CN1CCN(C(=O)c2cn3c4c(c(N5CC[C@@H](NC(=O)CNCCC6CCCN6C)C5)c(F)cc4c2=O)Oc2cc4c(cc2-3)oc2ccccc24)CC1 (stereo partly shown) [compound 411] | 0.75 |
| CC1(C)CC(NC(=O)c2cn3c4c(c(N5CCC(N)C5)ccc4c2=O)Oc2cc4ccccc4cc2-3)CC(C)(C)N1 (stereo not shown) [compound 558] | 0.375 |
| CN1CCCC1CCNC(=O)c1cn2c3c(c(N4CCC(n5c(=O)[nH]c6ccccc65)CC4)c(F)cc3c1=O)Oc1cc3ccccc3cc1-2 (stereo not shown) [compound 324] | 1 |
| CN1CCCC1CCNc1c(F)cc2c(=O)c(C(=O)NCCN3CCOCC3)cn3c2c1Oc1cc2c(cc1-3)oc1ccccc12 (stereo not shown) [compound 158] | 1.75 |
| CC(C)(C)OC(=O)N[C@@H]1CCN(c2c(F)cc3c(=O)c(C(=O)NCCCN=C(N)N)cn4c3c2Oc2cc3ccccc3cc2-4)C1 [compound 429] | 0.75 |
| O=C(CCN1CCCCC1)N[C@@H]1CCN(c2c(F)cc3c(=O)c(C(=O)NCCN4CCOCC4)cn4c3c2Oc2cc3c(cc2-4)oc2ccccc23)C1 [compound 319] | 1 |
| O=C(NCCCN1CCOCC1)c1cn2c3c(c(NCCN4CCCC4)ccc3c1=O)Oc1cc3ccccc3cc1-2 [compound 267] | 1.75 |

The remaining lines, values ahead:

| IC50 [µM] | SMILES |
| --- | --- |
| 0.75 | CN1CCCC1CCNC(=O)c1cn2c3c(c(C4C[C@@H](N)[C@H](c5ccccc5)C4)c(F)cc3c1=O)Oc1cc3ccccc3cc1-2 (stereo partly shown) [compound 458] |
| 0.75 | CN(C)c1cccc(CNc2c(F)cc3c(=O)c(C(=O)NCCC4CCCN4C)cn4c3c2Oc2cc3ccccc3cc2-4)c1 (stereo not shown) [compound 464] |
| 0.75 | CN1CCN(CCCNc2c(F)cc3c(=O)c(C(=O)NCCC4CCCN4C)cn4c3c2Oc2cc3ccccc3cc2-4)CC1 (stereo not shown) [compound 394] |
| 1.75 | CC(CNc1c(F)cc2c(=O)c(C(=O)NCCC3CCCN3C)cn3c2c1Oc1cc2ccccc2cc1-3)c1ccccc1 (stereo not shown) [compound 285] |
| 0.75 | CN1CCCC1CCNC(=O)c1cn2c3c(c(N4CCC(NC(=O)OC(C)(C)C)C4)ccc3c1=O)Oc1cc3ccccc3cc1-2 (stereo not shown) [compound 451] |
| 4 | O=C(O)c1cn2c3c(c(NCC4CCCO4)c(F)cc3c1=O)Oc1cc3ccccc3cc1-2 (stereo not shown) [compound 1] |
| 0.375 | CC1CCCCN1CCCNc1c(F)cc2c(=O)c(C(=O)NCCC3CCCN3C)cn3c2c1Oc1cc2ccccc2cc1-3 (stereo not shown) [compound 557] |
| 2.25 | CN1CCCC1CCNC(=O)c1cn2c3c(c(F)c(F)cc3c1=O)Oc1cc3ccccc3cc1-2 (stereo not shown) [compound 101] |
| 0.94 | CN1CCC[C@H]1CCNC(=O)c1cn2c3c(c(N4CCC(c5cnccn5)C4)c(F)cc3c1=O)Oc1cc3ccccc3cc1-2 (stereo partly shown) [compound 339] |
| 1.75 | COc1ccc(CCNc2c(F)cc3c(=O)c(C(=O)NCCC4CCCN4C)cn4c3c2Oc2cc3ccccc3cc2-4)cc1 (stereo not shown) [compound 286] |
| 2.5 | O=C(NCCN1CCOCC1)c1cn2c3c(c(NCCN4CCCC4)c(F)cc3c1=O)Oc1cc3ccccc3cc1-2 [compound 70] |
| 1.75 | CN1CCCC1CCNC(=O)c1cn2c3c(c(NCCCCO)c(F)cc3c1=O)Oc1cc3ccccc3cc1-2 (stereo not shown) [compound 284] |
| 1.75 | CCN(CC)C(=O)C1CCCN(c2c(F)cc3c(=O)c(C(=O)NCCC4CCCN4C)cn4c3c2Oc2cc3ccccc3cc2-4)C1 (stereo not shown) [compound 250] |

— patent publication US7507727B2, “Substituted quinobenzoxazine analogs and methods of using thereof” (Cylene Pharmaceuticals, Inc., priority 2003, dated 2009)
